# Measurements reported in PMC11284788, “NN1213 – A Potent, Long-Acting, and Selective Analog of Human Amylin” (Journal of Medicinal Chemistry, 2024).
# Columns and labels:
# [1] = cited from earlier work
# Text: The major chemical degradation products of pramlintide have been identified to include deamidation and isomerization of asparagine residues in positions 3, 21, and 22 and to a lesser degree in positions 14 and 35.[22] Reduction of these deamidation reactions in pramlintide has been obtained by acidic formulation.[23]
# cCTR = test: Species-specific cAMP assay, cCTR; conditions: cAMP HTRF, transiently transfected BHK cells, 30 min room temperature, five experiments
# cAMY1R [2] = test: Whole-cell competition binding, cAMY1R; conditions: IC50 for the CTR divided by that of the AMYR, canine receptors
# cAMY1R [3] = test: Species-specific cAMP assay, cAMY1R
# cAMY3R [4] = test: Species-specific cAMP assay, cAMY3R
# mCTR = biological target: T1, mCTR (Mus musculus, UniProt Q60755); test: Mouse receptor cAMP HTRF assay (BacMam, HeLa), mCTR
# T1 sequence (Q60755 42-496 isoform Q60755-2 limits assumed): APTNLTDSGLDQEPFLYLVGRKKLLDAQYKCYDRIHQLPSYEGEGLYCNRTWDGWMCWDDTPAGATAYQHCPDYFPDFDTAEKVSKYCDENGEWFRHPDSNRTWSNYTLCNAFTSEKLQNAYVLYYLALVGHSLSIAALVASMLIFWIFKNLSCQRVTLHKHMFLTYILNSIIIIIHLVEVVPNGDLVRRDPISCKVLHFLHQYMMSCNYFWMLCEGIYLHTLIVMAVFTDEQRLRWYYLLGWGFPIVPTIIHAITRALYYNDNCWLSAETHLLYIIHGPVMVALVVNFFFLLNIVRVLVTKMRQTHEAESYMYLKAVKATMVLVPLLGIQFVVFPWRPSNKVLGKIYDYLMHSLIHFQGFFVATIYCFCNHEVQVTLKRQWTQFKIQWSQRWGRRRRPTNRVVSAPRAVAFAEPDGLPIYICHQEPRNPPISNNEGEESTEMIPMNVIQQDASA
# Experimental: (§1) Mouse Receptors (Functional Assay Only). Cell culture: HeLa cells were cultured in an incubator at 37 °C and 5% CO2, in cell culture medium (DMEM with 10% [v/v] FBS, 1% [w/w] penicillin/streptomycin).
# (§2) Cell seeding in T75 flasks (day 1): The day before transfection of the cells, 2 x 10^6 HeLa cells were seeded in three T75 flasks and incubated overnight. Media was removed from 1–2 T175 flasks and cells were washed once with Dulbecco PBS (with Mg2+ and Ca2+). Cells were detached with 2 mL TrypLE Express for 5 min in an incubator. Five mL pre-warmed media was added to each T75 flask and mixed with the cell suspension. Cells were counted in 100 µL of this suspension. The cell suspension was centrifuged at 1200 rpm for 4 min and the supernatant was discarded. The cells were re-suspended in media and 2 x 10^6 cells were seeded in approximately 15 mL in each of the three T75 flasks. The flasks were incubated overnight.
# (§3) with 20 µL poly-d-lysin/well for 2–3 h at 37 °C. The plates were washed twice with PBS and allowed
# (§4) Transfection of cells (day 2): Reagents were acclimated to room temperature for 30 min. Media was
# (§5) removed from the T75 flasks, and cells were washed once with PBS (with Mg2+ and Ca2+). Cells were
# (§6) Seeding of transfected cells in assay plates (day 2): Following the 3-h transduction, T75 flasks were
# (§7) washed once with PBS (with Mg2+ and Ca2+). […]
# mL pre-warmed media and counted.
# mAMY3R = biological target: T2, mAMY3R (Mus musculus, UniProt Q60755+Q9WUP1); test: Mouse receptor cAMP HTRF assay (BacMam, HeLa), mAMY3R; conditions: ratio of cAMP EC50 values, mouse receptors
# T2 sequence (Q60755 42-496 isoform Q60755-2 limits assumed): T1 sequence (Q60755 42-496 isoform Q60755-2 limits assumed)
# T2 sequence (Q9WUP1 24-147 partner limits assumed): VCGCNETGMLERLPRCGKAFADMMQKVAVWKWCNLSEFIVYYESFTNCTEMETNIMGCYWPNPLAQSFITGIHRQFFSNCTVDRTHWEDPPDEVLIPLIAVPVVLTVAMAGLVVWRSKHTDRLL
# Experimental: as §1, §2, §3, §4, §5, §6, §7
# mL pre-warmed media and counted.
# cAMY3R [5] = test: Whole-cell competition binding, cAMY3R; conditions: IC50 for the CTR divided by that of the AMYR, canine receptors
# [6] = cAMP HTRF, transiently transfected BHK cells, 30 min room temperature, five experiments
# [7] = ratio of cAMP EC50 values, canine receptors
structure (smiles),measurement,setting,value
"CC[C@H](C)[C@H](NC(=O)[C@@H]1CCCN1C(=O)CNC(=O)[C@H](Cc1ccccc1)NC(=O)[C@H](CC(N)=O)NC(=O)[C@H](CC(N)=O)NC(=O)[C@H](CO)NC(=O)[C@H](CO)NC(=O)[C@H](Cc1c[nH]cn1)NC(=O)[C@@H](NC(=O)[C@H](CC(C)C)NC(=O)[C@H](Cc1ccccc1)NC(=O)[C@H](CC(N)=O)NC(=O)[C@H](C)NC(=O)[C@H](CC(C)C)NC(=O)[C@H](CCCNC(=N)N)NC(=O)[C@H](CCC(N)=O)NC(=O)[C@@H](NC(=O)[C@H](C)NC(=O)[C@@H]1CSSC[C@H](NC(=O)[C@@H](N)CCCCN)C(=O)N[C@@H](CC(N)=O)C(=O)N[C@@H]([C@@H](C)O)C(=O)N[C@@H](C)C(=O)N[C@@H]([C@@H](C)O)C(=O)N1)[C@@H](C)O)C(C)C)C(=O)N[C@@H](CC(C)C)C(=O)N1CCC[C@H]1C(=O)N1CCC[C@H]1C(=O)N[C@H](C(=O)N[C@@H](CC(N)=O)C(=O)N[C@H](C(=O)NCC(=O)N[C@@H](CO)C(=O)N[C@@H](CC(N)=O)C(=O)N[C@H](C(=O)N[C@@H](Cc1ccc(O)cc1)C(N)=O)[C@@H](C)O)C(C)C)[C@@H](C)O [pramlintide, reference compound]",half-life in plasma,[1],30 to 50 min
same,cCTR pEC50,cCTR,10.90
same,"Ratio CTR/AMY1R (canine, binding)",cAMY1R [2],67
same,cAMY1R pEC50,cAMY1R [3]; [6],10.77
same,"Ratio CTR/AMY1R (canine, functional)",cAMY1R [3]; [7],1
same,cAMY3R pEC50,cAMY3R [4]; [6],10.88
same,"Ratio CTR/AMY3R (canine, functional)",cAMY3R [4]; [7],1
same,EC50,mCTR,3.09 nM
same,"Ratio CTR/AMY3R (mouse, functional)",mAMY3R,8
same,"Ratio CTR/AMY3R (canine, binding)",cAMY3R [5],112
